Test results: patent US6914045B2, “Glycopeptide antibiotics” (Wyeth Holdings Corporation, priority 2001, dated 2005)
In brackets after ≈: the same amount, converted by molar mass. Blank lines part the entries; values can stand above or below the molecule they belong to.

Tests used:
Assay in all cases: in vitro antibacterial evaluation, MIC by broth dilution
Format in all cases: cell-based
Enterococcus sp. = conditions: broth dilution, 18 hours at 35° C.
Procedure, shortened: (§1)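 Broth dilution per NCCLS M7-A2 in Mueller-Hinton II medium, inoculum 5×10^5 CFU/mL, antibiotic range 64-0.06 μg/mL. MIC taken as lowest concentration inhibiting growth; Gram-positive panel includes recent clinical isolates resistant to methicillin, penicillin and/or vancomycin.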

Staphylococcus sp. = conditions: broth dilution, 18 hours at 35° C.; for MIC Staphylococcus aureus (ATCC 29213): strain ATCC 29213; for MIC Staphylococcus aureus (GC 1131): strain GC 1131; for MIC Staphylococcus aureus (GC 3051): strain GC 3051; for MIC Staphylococcus aureus (GC 3053): strain GC 3053; for MIC Staphylococcus aureus (GC 4541): strain GC 4541; for MIC Staphylococcus aureus (GC 4542): strain GC 4542; for MIC Staphylococcus aureus-SMITH (GC 4543): strain GC 4543; for MIC Staphylococcus aureus (GC 4544): strain GC 4544; for MIC Staphylococcus aureus (GC 4545): strain GC 4545; for MIC Staphylococcus haemolyticus (GC 4546): strain GC 4546; for MIC Coagulase Negative Staphylococcus (GC 4547): strain GC 4547; for MIC Coagulase Negative Staphylococcus (GC 4548): strain GC 4548; for MIC Coagulase Negative Staphylococcus (GC 4549): strain GC 4549; for MIC Coagulase Negative Staphylococcus (GC 4551): strain GC 4551; for MIC Coagulase Negative Staphylococcus (GC 6257): strain GC 6257
Procedure, shortened: as §1

Streptococcus sp. = conditions: broth dilution, 18 hours at 35° C.
Procedure, shortened: as §1

Escherichia coli = conditions: 18 hours at 35° C.
[1] = inoculum 5×10^5 CFU/mL, strain ATCC 29212
[2] = inoculum 5×10^5 CFU/mL, strain GC 2242
[3] = inoculum 5×10^5 CFU/mL, strain GC 2243
[4] = inoculum 5×10^5 CFU/mL, strain GC 2691
[5] = inoculum 5×10^5 CFU/mL, strain GC 3059
[6] = inoculum 5×10^5 CFU/mL, strain GC 4552
[7] = inoculum 5×10^5 CFU/mL, strain GC 4553
[8] = inoculum 5×10^5 CFU/mL, strain GC 4554
[9] = inoculum 5×10^5 CFU/mL, strain GC 4556
[10] = inoculum 5×10^5 CFU/mL, strain GC 4557
[11] = inoculum 5×10^5 CFU/mL, strain GC 4558
[12] = inoculum 5×10^5 CFU/mL, strain GC 6189
[13] = inoculum 5×10^5 CFU/mL, strain ATCC 6301
[14] = inoculum 5×10^5 CFU/mL, strain GC 1894
[15] = inoculum 5×10^5 CFU/mL, strain GC 4563
[16] = inoculum 5×10^5 CFU/mL, strain GC 4564
[17] = inoculum 5×10^5 CFU/mL, strain GC 4565

- MIC Enterococcus avium (GC 4558) (Enterococcus sp.): 16 µg/mL (≈ 10.9 µM)
- MIC Enterococcus faecalis (ATCC 29212) (Enterococcus sp.): 32 µg/mL (≈ 21.7 µM)
- MIC Enterococcus faecalis (GC 2242) (Enterococcus sp.): 16 µg/mL (≈ 10.9 µM)
- MIC Enterococcus faecalis (GC 2691) (Enterococcus sp.): 8 µg/mL (≈ 5.43 µM)
- MIC Enterococcus faecalis (GC 3059) (Enterococcus sp.): 32 µg/mL (≈ 21.7 µM)
- MIC Enterococcus faecalis (GC 4552) (Enterococcus sp.): 32 µg/mL (≈ 21.7 µM)
- MIC Enterococcus faecalis (GC 4553) (Enterococcus sp.): 16 µg/mL (≈ 10.9 µM)
- MIC Enterococcus faecalis (GC 4554) (Enterococcus sp.): 32 µg/mL (≈ 21.7 µM)
- MIC Enterococcus faecalis (GC 6189) (Enterococcus sp.): 16 µg/mL (≈ 10.9 µM)
- MIC Enterococcus faecium (GC 2243) (Enterococcus sp.): 32 µg/mL (≈ 21.7 µM)
- MIC Enterococcus faecium (GC 4556) (Enterococcus sp.): 32 µg/mL (≈ 21.7 µM)
- MIC Enterococcus faecium (GC 4557) (Enterococcus sp.): 32 µg/mL (≈ 21.7 µM)
- MIC Enterococcus faecalis (ATCC 29212) (Enterococcus sp.; [1]): 32 µg/mL (≈ 21.7 µM)
- MIC Enterococcus faecalis (GC 2242) (Enterococcus sp.; [2]): 16 µg/mL (≈ 10.9 µM)
- MIC Enterococcus faecium (GC 2243) (Enterococcus sp.; [3]): 32 µg/mL (≈ 21.7 µM)
- MIC Enterococcus faecalis (GC 2691) (Enterococcus sp.; [4]): 8 µg/mL (≈ 5.43 µM)
- MIC Enterococcus faecalis (GC 3059) (Enterococcus sp.; [5]): 32 µg/mL (≈ 21.7 µM)
- MIC Enterococcus faecalis (GC 4552) (Enterococcus sp.; [6]): 32 µg/mL (≈ 21.7 µM)
- MIC Enterococcus faecalis (GC 4553) (Enterococcus sp.; [7]): 16 µg/mL (≈ 10.9 µM)
- MIC Enterococcus faecalis (GC 4554) (Enterococcus sp.; [8]): 32 µg/mL (≈ 21.7 µM)
- MIC Enterococcus faecium (GC 4556) (Enterococcus sp.; [9]): 32 µg/mL (≈ 21.7 µM)
- MIC Enterococcus faecium (GC 4557) (Enterococcus sp.; [10]): 32 µg/mL (≈ 21.7 µM)
- MIC Enterococcus avium (GC 4558) (Enterococcus sp.; [11]): 16 µg/mL (≈ 10.9 µM)
- MIC Enterococcus faecalis (GC 6189) (Enterococcus sp.; [12]): 16 µg/mL (≈ 10.9 µM)
- MIC Staphylococcus aureus (ATCC 29213) (Staphylococcus sp.): 32 µg/mL (≈ 21.7 µM)
- MIC Staphylococcus aureus (GC 1131) (Staphylococcus sp.): 32 µg/mL (≈ 21.7 µM)
- MIC Staphylococcus aureus (GC 3051) (Staphylococcus sp.): 32 µg/mL (≈ 21.7 µM)
- MIC Staphylococcus aureus (GC 3053) (Staphylococcus sp.): 32 µg/mL (≈ 21.7 µM)
- MIC Staphylococcus aureus (GC 4541) (Staphylococcus sp.): 32 µg/mL (≈ 21.7 µM)
- MIC Staphylococcus aureus (GC 4542) (Staphylococcus sp.): 32 µg/mL (≈ 21.7 µM)
- MIC Staphylococcus aureus-SMITH (GC 4543) (Staphylococcus sp.): 32 µg/mL (≈ 21.7 µM)
- MIC Staphylococcus aureus (GC 4544) (Staphylococcus sp.): 32 µg/mL (≈ 21.7 µM)
- MIC Staphylococcus aureus (GC 4545) (Staphylococcus sp.): 32 µg/mL (≈ 21.7 µM)
- MIC Coagulase Negative Staphylococcus (GC 4547) (Staphylococcus sp.): 32 µg/mL (≈ 21.7 µM)
- MIC Coagulase Negative Staphylococcus (GC 4548) (Staphylococcus sp.): 32 µg/mL (≈ 21.7 µM)
- MIC Coagulase Negative Staphylococcus (GC 4549) (Staphylococcus sp.): 8 µg/mL (≈ 5.43 µM)
- MIC Coagulase Negative Staphylococcus (GC 4551) (Staphylococcus sp.): 32 µg/mL (≈ 21.7 µM)
- MIC Coagulase Negative Staphylococcus (GC 6257) (Staphylococcus sp.): 32 µg/mL (≈ 21.7 µM)
- MIC Streptococcus agalactiae (GC 4564) (Streptococcus sp.): 0.25 µg/mL (≈ 0.17 µM)
- MIC Streptococcus pneumoniae (ATCC 6301) (Streptococcus sp.): 0.25 µg/mL (≈ 0.17 µM)
- MIC Streptococcus pneumoniae (GC 1894) (Streptococcus sp.): <0.06 µg/mL
- MIC Streptococcus pneumoniae (GC 4565) (Streptococcus sp.): <0.06 µg/mL
- MIC Streptococcus pyogenes (GC 4563) (Streptococcus sp.): 2 µg/mL (≈ 1.36 µM)
- MIC Streptococcus pneumoniae (ATCC 6301) (Streptococcus sp.; [13]): 0.25 µg/mL (≈ 0.17 µM)
- MIC Streptococcus pneumoniae (GC 1894) (Streptococcus sp.; [14]): <0.06 µg/mL
- MIC Streptococcus pyogenes (GC 4563) (Streptococcus sp.; [15]): 2 µg/mL (≈ 1.36 µM)
- MIC Streptococcus agalactiae (GC 4564) (Streptococcus sp.; [16]): 0.25 µg/mL (≈ 0.17 µM)
- MIC Streptococcus pneumoniae (GC 4565) (Streptococcus sp.; [17]): <0.06 µg/mL
- MIC Escherichia coli (ATCC 25922) (Escherichia coli): >64 µg/mL
- MIC Escherichia coli (GC 4559) (Escherichia coli): >64 µg/mL
- MIC Escherichia coli (GC 4560) (Escherichia coli): 64 µg/mL (≈ 43.4 µM)
Structure (SMILES): CC(c1ccccc1)C1NC(=O)CNC(=O)C(CO)NC(=O)C(C(O)C2CNC(=N)N2C2OC(CO)C(O)C(O)C2O)NC(=O)C(C(O)C2CNC(=N)N2)NC(=O)C(Cc2ccc(OC3OC(CO)C(OC4OC5COC6(CCCCCCCCCCCC6)OC5C(O)C4O)C(O)C3O)cc2)NC1=O (stereo not drawn) [Example 210]
- MIC Staphylococcus haemolyticus (GC 4546) (Staphylococcus sp.): 32 µg/mL (≈ 21.7 µM)

- MIC Enterococcus avium (GC 4558) (Enterococcus sp.): 64 µg/mL (≈ 39.9 µM)
- MIC Enterococcus faecalis (ATCC 29212) (Enterococcus sp.): >64 µg/mL
- MIC Enterococcus faecalis (GC 2242) (Enterococcus sp.): >64 µg/mL
- MIC Enterococcus faecalis (GC 2691) (Enterococcus sp.): >64 µg/mL
- MIC Enterococcus faecalis (GC 3059) (Enterococcus sp.): >64 µg/mL
- MIC Enterococcus faecalis (GC 4552) (Enterococcus sp.): >64 µg/mL
- MIC Enterococcus faecalis (GC 4553) (Enterococcus sp.): 32 µg/mL (≈ 20 µM)
- MIC Enterococcus faecalis (GC 4554) (Enterococcus sp.): >64 µg/mL
- MIC Enterococcus faecalis (GC 6189) (Enterococcus sp.): >64 µg/mL
- MIC Enterococcus faecium (GC 2243) (Enterococcus sp.): 32 µg/mL (≈ 20 µM)
- MIC Enterococcus faecium (GC 4556) (Enterococcus sp.): >64 µg/mL
- MIC Enterococcus faecium (GC 4557) (Enterococcus sp.): >64 µg/mL
- MIC Enterococcus faecalis (ATCC 29212) (Enterococcus sp.; [1]): >64 µg/mL
- MIC Enterococcus faecalis (GC 2242) (Enterococcus sp.; [2]): >64 µg/mL
- MIC Enterococcus faecium (GC 2243) (Enterococcus sp.; [3]): 32 µg/mL (≈ 20 µM)
- MIC Enterococcus faecalis (GC 2691) (Enterococcus sp.; [4]): >64 µg/mL
- MIC Enterococcus faecalis (GC 3059) (Enterococcus sp.; [5]): >64 µg/mL
- MIC Enterococcus faecalis (GC 4552) (Enterococcus sp.; [6]): >64 µg/mL
- MIC Enterococcus faecalis (GC 4553) (Enterococcus sp.; [7]): 32 µg/mL (≈ 20 µM)
- MIC Enterococcus faecalis (GC 4554) (Enterococcus sp.; [8]): >64 µg/mL
- MIC Enterococcus faecium (GC 4556) (Enterococcus sp.; [9]): >64 µg/mL
- MIC Enterococcus faecium (GC 4557) (Enterococcus sp.; [10]): >64 µg/mL
- MIC Enterococcus avium (GC 4558) (Enterococcus sp.; [11]): 64 µg/mL (≈ 39.9 µM)
- MIC Enterococcus faecalis (GC 6189) (Enterococcus sp.; [12]): >64 µg/mL
- MIC Staphylococcus aureus (GC 1131) (Staphylococcus sp.; inoculum 5×10^5 CFU/mL): >64 µg/mL
- MIC Staphylococcus aureus (ATCC 29213) (Staphylococcus sp.): >64 µg/mL
- MIC Staphylococcus aureus (GC 1131) (Staphylococcus sp.): >64 µg/mL
- MIC Staphylococcus aureus (GC 3051) (Staphylococcus sp.): >64 µg/mL
- MIC Staphylococcus aureus (GC 3053) (Staphylococcus sp.): >64 µg/mL
- MIC Staphylococcus aureus (GC 4541) (Staphylococcus sp.): >64 µg/mL
- MIC Staphylococcus aureus (GC 4542) (Staphylococcus sp.): >64 µg/mL
- MIC Staphylococcus aureus-SMITH (GC 4543) (Staphylococcus sp.): >64 µg/mL
- MIC Staphylococcus aureus (GC 4544) (Staphylococcus sp.): >64 µg/mL
- MIC Staphylococcus aureus (GC 4545) (Staphylococcus sp.): >64 µg/mL
- MIC Coagulase Negative Staphylococcus (GC 4547) (Staphylococcus sp.): >64 µg/mL
- MIC Coagulase Negative Staphylococcus (GC 4548) (Staphylococcus sp.): >64 µg/mL
- MIC Coagulase Negative Staphylococcus (GC 4549) (Staphylococcus sp.): >64 µg/mL
- MIC Coagulase Negative Staphylococcus (GC 4551) (Staphylococcus sp.): >64 µg/mL
- MIC Coagulase Negative Staphylococcus (GC 6257) (Staphylococcus sp.): >64 µg/mL
- MIC Streptococcus agalactiae (GC 4564) (Streptococcus sp.): 1 µg/mL (≈ 0.624 µM)
- MIC Streptococcus pneumoniae (ATCC 6301) (Streptococcus sp.): 0.12 µg/mL (≈ 0.0748 µM)
- MIC Streptococcus pneumoniae (GC 1894) (Streptococcus sp.): <0.06 µg/mL
- MIC Streptococcus pneumoniae (GC 4565) (Streptococcus sp.): <0.06 µg/mL
- MIC Streptococcus pyogenes (GC 4563) (Streptococcus sp.): 16 µg/mL (≈ 9.98 µM)
- MIC Streptococcus pneumoniae (ATCC 6301) (Streptococcus sp.; [13]): 0.12 µg/mL (≈ 0.0748 µM)
- MIC Streptococcus pneumoniae (GC 1894) (Streptococcus sp.; [14]): <0.06 µg/mL
- MIC Streptococcus pyogenes (GC 4563) (Streptococcus sp.; [15]): 16 µg/mL (≈ 9.98 µM)
- MIC Streptococcus agalactiae (GC 4564) (Streptococcus sp.; [16]): 1 µg/mL (≈ 0.624 µM)
- MIC Streptococcus pneumoniae (GC 4565) (Streptococcus sp.; [17]): <0.06 µg/mL
- MIC Escherichia coli (ATCC 25922) (Escherichia coli): >64 µg/mL
- MIC Escherichia coli (GC 4559) (Escherichia coli): >64 µg/mL
- MIC Escherichia coli (GC 4560) (Escherichia coli): >64 µg/mL
Structure (SMILES): CC(C)=CCCC(C)=CCCC(C)=CCOc1cccc(C2OCC3OC(OC4C(CO)OC(Oc5ccc(CC6NC(=O)C(C(C)c7ccccc7)NC(=O)CNC(=O)C(CO)NC(=O)C(C(O)C7CNC(=N)N7C7OC(CO)C(O)C(O)C7O)NC(=O)C(C(O)C7CNC(=N)N7)NC6=O)cc5)C(O)C4O)C(O)C(O)C3O2)c1 (stereo not drawn) [Example 185]
- MIC Staphylococcus haemolyticus (GC 4546) (Staphylococcus sp.): >64 µg/mL
